Test results as given in patent publication US11395847B2, “Acylated GLP-1/GLP-2 dual agonists” (Zealand Pharma A/S, priority 2016, dated 2022).
Where a SMILES comes first, the peptide text is derived from it.

Legend:
[1] = tested on: Normal chow-fed C57BL/6J male mice; experiment: Effect on fasting glucose and intestinal weight in normal mice; format: in vivo
Description: Normal chow-fed C57BL/6J male mice were used. The mice were kept in standard housing conditions, light-, temperature-, and humidity-controlled room (12:12 h light-dark cycle, with lights on at 06.00-18.00 h; 20-22° C.; 50-80% relative humidity). Each dosing group consisted of 6 animals. Mice were dosed once daily with 100 nmol/kg with the test compounds or vehicle for 4 days via subcutaneous administration.
On day 0 mice were fasted and blood glucose levels measured after a single s.c. injection with peptides. Animals were sacrificed 24 hours after final dosing on day 3, and small intestinal wet weights were measured.

human GLP-1 receptor = target: T1, human GLP-1 receptor (Homo sapiens, UniProt P43220); experiment: GLP-1 receptor potency assay (cAMP ALPHASCREEN, HEK293 cells stably expressing GLP-1 R); format: cell-based; conditions: cAMP response, HEK293 cells expressing human GLP-1 R
T1 construct: expressed in transfected cells
T1 sequence (P43220 24-463): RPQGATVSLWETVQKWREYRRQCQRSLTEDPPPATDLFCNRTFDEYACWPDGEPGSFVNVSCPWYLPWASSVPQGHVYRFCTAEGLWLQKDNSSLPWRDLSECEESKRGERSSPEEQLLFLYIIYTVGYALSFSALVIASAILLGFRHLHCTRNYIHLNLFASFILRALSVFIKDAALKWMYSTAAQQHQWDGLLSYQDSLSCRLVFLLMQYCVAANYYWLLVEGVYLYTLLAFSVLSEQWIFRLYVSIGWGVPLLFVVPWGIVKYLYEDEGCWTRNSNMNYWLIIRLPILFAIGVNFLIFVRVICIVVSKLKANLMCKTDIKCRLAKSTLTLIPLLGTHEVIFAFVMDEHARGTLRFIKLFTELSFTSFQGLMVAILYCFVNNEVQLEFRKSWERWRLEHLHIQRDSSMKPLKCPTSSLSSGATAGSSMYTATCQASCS
In short: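 Clonal HEK293 line stably transfected with human GLP-1R (G418-selected) was treated with test compounds and the cAMP response quantified by ALPHASCREEN. Signals were normalized to positive control and vehicle, with EC50 and maximal response taken from concentration-response curves.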

human GLP-2 receptor = target: T2, human GLP-2 receptor (Homo sapiens, UniProt O95838, D470N); experiment: GLP-2 receptor potency assay (cAMP ALPHASCREEN, HEK293 cells stably expressing GLP-2 R); format: cell-based; conditions: cAMP response, HEK293 cells expressing human GLP-2 R; read-out: EC50 GLP-2
T2 construct: expressed in transfected cells
T2 sequence (O95838 1-553 D470N): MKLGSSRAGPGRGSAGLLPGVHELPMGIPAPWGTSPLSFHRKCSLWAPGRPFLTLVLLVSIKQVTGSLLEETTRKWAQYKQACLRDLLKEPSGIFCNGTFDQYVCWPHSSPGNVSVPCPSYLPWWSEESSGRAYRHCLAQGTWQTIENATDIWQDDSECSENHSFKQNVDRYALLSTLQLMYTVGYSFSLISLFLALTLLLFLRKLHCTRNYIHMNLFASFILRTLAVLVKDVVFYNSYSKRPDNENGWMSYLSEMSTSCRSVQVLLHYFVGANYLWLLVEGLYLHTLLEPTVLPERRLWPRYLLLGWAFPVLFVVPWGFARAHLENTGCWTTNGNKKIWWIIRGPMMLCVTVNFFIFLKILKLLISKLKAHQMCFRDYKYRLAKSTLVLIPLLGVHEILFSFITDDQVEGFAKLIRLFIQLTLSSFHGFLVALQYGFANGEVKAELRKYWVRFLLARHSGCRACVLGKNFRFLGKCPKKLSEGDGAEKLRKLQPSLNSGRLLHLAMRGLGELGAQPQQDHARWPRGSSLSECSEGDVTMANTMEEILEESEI
In short: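 HEK293 clones stably transfected with the human GLP-2 receptor, selected with G418, were used. Intracellular cAMP was quantified by AlphaScreen. Responses were normalised to positive and vehicle controls, and EC50 and maximal response were taken from concentration-response curves.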

CC[C@H](C)[C@H](NC(=O)[C@H](Cc1ccccc1)NC(=O)[C@H](CC(=O)O)NC(=O)[C@H](CCCNC(=N)N)NC(=O)[C@H](C)NC(=O)[C@H](C)NC(=O)[C@H](CCC(N)=O)NC(=O)[C@H](CCCCNC(=O)COCCOCCNC(=O)[C@H](CCCCN)NC(=O)[C@H](CCC(=O)O)NC(=O)[C@H](CCCCN)NC(=O)CC[C@H](NC(=O)CCCCCCCCCCCCCCCCCCC(=O)O)C(=O)O)NC(=O)[C@H](CC(=O)O)NC(=O)[C@H](CC(C)C)NC(=O)[C@@H](NC(=O)[C@@H](NC(=O)[C@H](C)NC(=O)[C@H](CC(C)C)NC(=O)[C@H](CCC(=O)O)NC(=O)[C@H](CO)NC(=O)[C@H](CO)NC(=O)[C@H](Cc1ccccc1)NC(=O)[C@@H](NC(=O)CNC(=O)[C@H](CCC(=O)O)NC(=O)C(C)(C)NC(=O)[C@@H](N)Cc1c[nH]cn1)[C@@H](C)O)[C@@H](C)O)[C@@H](C)CC)C(=O)N[C@@H](C)C(=O)N[C@@H](Cc1c[nH]c2ccccc12)C(=O)N[C@@H](CC(C)C)C(=O)N[C@H](C(=O)N[C@@H](CCC(=O)O)C(=O)N[C@@H](Cc1c[nH]cn1)C(=O)N[C@@H](CCCCN)C(=O)N[C@H](C(=O)N[C@H](C(=O)N[C@@H](CC(=O)O)C(=O)O)[C@@H](C)O)[C@@H](C)CC)[C@@H](C)CC [Compound 50] (HELM PEPTIDE1{H.[Aib].E.G.T.F.S.S.E.L.A.T.I.L.D.K.Q.A.A.R.D.F.I.A.W.L.I.E.H.K.I.T.D}|PEPTIDE2{[O=C(O)CCCCCCCCCCCCCCCCCCC(=O)[*:2]].[gGlu].K.E.K.[O=C(COCCOCCN[*:1])[*:2]]}$PEPTIDE1,PEPTIDE2,16:R3-6:R2$$$V2.0)
Small intestinal wet weight ([1]; 100 nmol/kg s.c. once daily for 4 days, sacrificed 24 hours after final dosing): 1.43 g
Fasting blood glucose ([1]; 100 nmol/kg s.c., day 0 after a single injection, fasted mice): 5.57 mM
EC50 (human GLP-1 receptor): 0.31 nM
EC50 (human GLP-2 receptor): 0.056 nM
